Laboratory results: patent publication US7964613B2 (Asahi Kasei Pharma Corporation, priority 2007, dated 2011)

What was measured:
[1] = target: T1, human ROCK1 (Homo sapiens, UniProt Q13464); test: Measurement of Rho kinase inhibitory activity (ELISA of MBS phosphorylation); format: biochemical; conditions: human ROCK1, MBS substrate, 100 μM ATP, 30° C. for 10 minutes
T1 construct: His tag (N); host or cells: insect cells (Sf9)
Protocol: In this test, human ROCK1 was used as Rho kinase, MBS (myosin binding subunit, subunit constituting myosin phosphatase) was used as the substrate of Rho kinase, and an anti-phosphorylated MBS antibody was used for detection of phosphorylation. The activity for inhibiting Rho kinase was determined by measuring phosphorylation of MBS by the Rho kinase by ELISA in the presence of an appropriately diluted test compound. As the Rho kinase used, a recombinant protein (N-terminal His-tagged recombinant human ROCK1 residues (1Met-[…])) was used, which was produced in insect cells (Sf9) using a sequence (1-727), of which activity was confirmed in the paper of Ishizaki et al. (Ishizaki, T. et al., FEBS Letters, 404, pp 118-124, 1997), based on the sequence of human ROCK1 (p 160 ROCK) described in the report of Ishizaki et al. (Ishizaki, T. et al., EMBO J., 15, pp 1885-1893, 1996). Further, as the MBS protein and anti-phosphorylated MBS antibody, those prepared according to the method described in the paper of Ito et al. (Ito, K et al., J. Physiol., 546, pp 823-836, 2003) were used.
A solution of MBS (Asahi Kasei Pharma, lot No, 040814n7-10) diluted with PBS to an appropriate concentration was added to an ELISA plate (Maxisorp, Nunc), and left, stand overnight at 4° C., and then the wells were washed twice with a washing solution (WB, washing buffer, 0.1% Tween 20/PBS). To the wells were added 1% bovine serum albumin (Sigma)/PBS, and left for 1 to 3 hours, and then the wells were washed 5 times with WB to prepare a substrate-immobilized plate. Onto this plate, a reaction mixture (5 mM MgSO4/0.1 M NaCl/20 mM HEPES (pH 7.5)/100 μM ATP/5 mM DTT), a test compound, and appropriately diluted human ROCK1 (Asahi Kasei Pharma, lot No, 030126.120-22) were added, and then reacted at 30° C. for 10 minutes. Then, 0.2 M EDTA (pH 7.5) was added to terminate the reaction, and the wells were washed 5 times with WB. A rabbit anti-phosphorylated MBS antibody solution (Asahi Kasei Pharma, lot No, 122676431) diluted 10,000 times with WB containing 1% bovine serum albumin was added to the wells, and after the reaction for 1 hour, the wells were washed 5 times with WB. Goat anti-rabbit IgG-HRP (Zymed) diluted 1,000 times with WB containing 1% bovine serum albumin was added to the wells as the secondary detection antibody and the mixture was reacted for 1 hour, and then the wells were washed 5 times with WB. An OPD (o-phenylenediamine) solution (1 mg/ml OPD, Sigma), 5.1 g/l of citric acid monohydrate, and 18.4 g/l of Na2HPO4.12H2O were added to the wells to develop color, […] was added 5 minutes later to terminate the color development, and absorbance was measured at 490 nm.
The inhibition ratio was calculated as follows. Inhibition ratio(%)=[…]
Further, the inhibition ratio was calculated with changing the concentration of the test compound, and a compound concentration providing an inhibition ratio of 50% was obtained as IC50.

[2] = system: rabbit normal intraocular pressure; test: Intraocular pressure reducing action; format: in vivo, Japanese white rabbit; conditions: Oryctolagus cuniculus, topical; 3 mM aqueous solution, 50 μl to the left eye; max IOP reduction (2, 4, 6 hours) / value immediately before administration; read-out: intraocular pressure reducing degree
Protocol: A Japanese white rabbit having a body weight of about 2 kg was placed in a positioner and naturalized for one week before the experiment. An opthalmologic local anesthesant (Benoxil) was administered to both eyes, and then intraocular pressure was measured by using a tonometer (Classic 30, Solan). A 3 mM aqueous solution of a test compound was administered in a volume of 50 μl to the left eye, and the right eye was not treated (control eye). The intraocular pressure values were measured for the left and right eyes immediately before, and 2, 4 and 6 hours after the administration of the aqueous solution of the test compound, and the difference of the measured values for the left and right eyes was considered an intraocular pressure reduction value of the test medicament at each measurement time. The largest difference of the values for the left and right eyes among the measured values at the measurement times (after 2, 4 and 6 hours) was considered the maximum intraocular pressure reduction value (max ? IOP) of each test medicament. The intraocular pressure reducing degree representing the intraocular pressure reducing action of each test medicament was calculated according to the following formula. Since rabbits show significant daily variation of intraocular pressure, daily variation is added when change of intraocular pressure is measured over time, and the intraocular pressure reducing action may be overestimated. Therefore, we used this calculation method of intraocular pressure reduction value in order to minimize the influence of the variation. Intraocular pressure reducing degree(%)=(max ? IOP/Intraocular pressure value immediately before administration)×100

T1 sequence (Q13464 1-727): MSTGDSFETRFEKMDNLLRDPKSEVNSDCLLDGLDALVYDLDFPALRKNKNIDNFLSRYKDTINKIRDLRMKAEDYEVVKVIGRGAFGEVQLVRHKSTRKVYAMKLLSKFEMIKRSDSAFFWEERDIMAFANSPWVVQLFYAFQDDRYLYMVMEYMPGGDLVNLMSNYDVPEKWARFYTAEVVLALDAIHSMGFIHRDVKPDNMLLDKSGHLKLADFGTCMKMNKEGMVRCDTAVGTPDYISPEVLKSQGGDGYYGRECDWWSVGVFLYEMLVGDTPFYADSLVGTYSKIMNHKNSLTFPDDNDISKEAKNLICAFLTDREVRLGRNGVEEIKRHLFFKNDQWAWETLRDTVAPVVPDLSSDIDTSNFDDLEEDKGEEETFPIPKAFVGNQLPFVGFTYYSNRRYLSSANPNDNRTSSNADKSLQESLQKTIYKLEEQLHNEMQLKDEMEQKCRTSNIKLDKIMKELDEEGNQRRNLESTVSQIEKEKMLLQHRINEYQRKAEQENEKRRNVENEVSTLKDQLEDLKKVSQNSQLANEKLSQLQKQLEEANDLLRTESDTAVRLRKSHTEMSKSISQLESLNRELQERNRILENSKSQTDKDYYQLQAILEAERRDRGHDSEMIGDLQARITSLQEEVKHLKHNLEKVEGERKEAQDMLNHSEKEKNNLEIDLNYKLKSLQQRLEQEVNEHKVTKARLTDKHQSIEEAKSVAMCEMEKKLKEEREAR

SMILES	IC50 [1] [nM]	inhibition in vivo at 3000 µM [2] [%]
O=C(CCN1CCNCC1)N[C@H]1CCN(S(=O)(=O)c2cccc3cncc(Cl)c23)C1 [Example 83, (S)-3-[3-(piperazin-1-yl)propionyl]amino-1-(4-chloro-5-isoquinolinesulfonyl)pyrrolidine]	1000 to 3000	10 to 20
N[C@@H]1CCCN(S(=O)(=O)c2cccc3cncc(Cl)c23)C1 [Example 21-2, (R)-3-Amino-1-(4-chloro-5-isoquinolinesulfonyl)piperidine]	1000 to 3000	10 to 20
O=C(CN1CCC1)N[C@H]1CCN(S(=O)(=O)c2cccc3cncc(Cl)c23)C1 [Example 114, (S)-3-[2-(Azetidin-1-yl)acetyl]amino-1-(4-chloro-5-isoquinolinesulfonyl)pyrrolidine]	1000 to 3000	5 to 10
Cc1nc(CN[C@H]2CCN(S(=O)(=O)c3cccc4cncc(Br)c34)C2)c[nH]1 [Example 1-19]	1000 to 3000	5 to 10
NCC(=O)N[C@H]1CCN(S(=O)(=O)c2cccc3cncc(Cl)c23)C1 [Example 58-1, (S)-3-(2-Aminoacetyl)amino-1-(4-chloro-5-isoquinolinesulfonyl)pyrrolidine]	1000 to 3000	≥ 20
Cc1cncc2cccc(S(=O)(=O)N3CC[C@H](NC4CCCCC4)C3)c12 [Example 8-30]	1000 to 3000	5 to 10
Cc1cncc2cccc(S(=O)(=O)N3CC[C@H](NCc4ccc5c(c4)OCO5)C3)c12 [Example 8-8]	< 1000	–
Cc1cncc2cccc(S(=O)(=O)N3CC[C@H](NCC#N)C3)c12 [Example 8-73]	1000 to 3000	–
Cc1cncc2cccc(S(=O)(=O)N3CC[C@H](NCc4ccc([N+](=O)[O-])cc4)C3)c12 [Example 8-9]	1000 to 3000	–
Nc1ncc(Br)c2c(S(=O)(=O)N3CC[C@H](N)C3)cccc12 [Example 41-1, (S)-3-Amino-1-(1-amino-4-bromo-5-isoquinolinesulfonyl)pyrrolidine]	< 1000	–
COc1ccc(CN[C@H]2CCN(S(=O)(=O)c3cccc4cncc(Br)c34)C2)cc1 [Example 1-7]	< 1000	–
C#Cc1cncc2cccc(S(=O)(=O)N3CC[C@H](NC4CCOCC4)C3)c12 [Example 10-31]	1000 to 3000	–
CCCN[C@H]1CCN(S(=O)(=O)c2cccc3cncc(C)c23)C1 [Example 8-5]	< 1000	–
O=S(=O)(c1cccc2cncc(Cl)c12)N1CC[C@H](NCc2ccc3c(c2)OCO3)C1 [Example 19-8]	< 1000	–
NCC1CCN(S(=O)(=O)c2cccc3cncc(Cl)c23)C1 (stereo not shown) [Example 44, 3-(Aminomethyl)-1-(4-chloro-5-isoquinolinesulfonyl)pyrrolidine]	< 1000	–
O=S(=O)(c1cccc2cncc(Br)c12)N1CC[C@H](NCc2ccc3c(c2)OCCO3)C1 [Example 1-38]	< 1000	–
Cc1cncc2cccc(S(=O)(=O)N3CC[C@H](NCc4ccccc4)C3)c12 [Example 8-6]	< 1000	–
Cc1ccc(CN[C@H]2CCN(S(=O)(=O)c3cccc4cncc(C)c34)C2)s1 [Example 8-18]	1000 to 3000	–
O=S(=O)(c1cccc2cncc(Cl)c12)N1CC[C@H](NCc2cccs2)C1 [Example 19-17]	1000 to 3000	–
NCC1CCN(S(=O)(=O)c2cccc3cncc(Cl)c23)CC1 [Example 52, 4-(Aminomethyl)-1-(4-chloro-5-isoquinolinesulfonyl)piperidine]	< 1000	–

SMILES	IC50 [1] [nM]	inhibition in vivo at 3000 µM [2] [%]
O=S(=O)(c1cccc2cncc(Br)c12)N1CC[C@H](NC2CCC(O)CC2)C1 (stereo partly shown) [Example 1-33]	1000 to 3000	–
Cc1ccc(CN[C@H]2CCN(S(=O)(=O)c3cccc4cncc(F)c34)C2)o1 [Example 18-16]	1000 to 3000	–
C#Cc1cncc2cccc(S(=O)(=O)N3CC[C@H](NCc4ccco4)C3)c12 [Example 10-14]	1000 to 3000	–
O=S(=O)(c1cccc2cncc(Br)c12)N1CC[C@H](NCCc2ccccc2)C1 [Example 1-13]	< 1000	–
O=S(=O)(c1cccc2cncc(Br)c12)N1CC[C@H](NCc2ccccc2)C1 [Example 1-6]	< 1000	–
O=S(=O)(c1cccc2cncc(Cl)c12)N1CC[C@H](NCc2ccco2)C1 [Example 19-14]	1000 to 3000	–
Cn1cccc1CN[C@H]1CCN(S(=O)(=O)c2cccc3cncc(Cl)c23)C1 [Example 19-21]	1000 to 3000	–
O=S(=O)(c1cccc2cncc(Br)c12)N1CC[C@H](NCc2ccc(O)cc2)C1 [Example 1-11]	< 1000	–
COc1ccc(CN[C@H]2CCN(S(=O)(=O)c3cccc4cncc(C)c34)C2)cc1 [Example 8-7]	< 1000	–
O=C(CCn1ccnc1)N[C@H]1CCN(S(=O)(=O)c2cccc3cncc(Cl)c23)C1 [Example 81, (S)-3-[3-(1H-Imidazol-1-yl)propionyl]amino-1-(4-chloro-5-isoquinolinesulfonyl)pyrrolidine]	–	10 to 20
Cc1ccc(CN[C@H]2CCN(S(=O)(=O)c3cccc4cncc(C)c34)C2)o1 [Example 8-16]	1000 to 3000	–
CN(C)CCC(=O)N[C@H]1CCN(S(=O)(=O)c2cccc3cncc(Cl)c23)C1 [Example 78, (S)-3-[3-(Dimethylamino)propionyl]amino-1-(4-chloro-5-isoquinolinesulfonyl)pyrrolidine]	–	10 to 20
CCN[C@H]1CCN(S(=O)(=O)c2cccc3cncc(Cl)c23)C1 [Example 19-4]	1000 to 3000	–
O=C(CN1CCOCC1)N[C@H]1CCN(S(=O)(=O)c2cccc3cncc(Cl)c23)C1 [Example 88, (S)-3-[2-(Morpholin-1-yl)acetyl]amino-1-(4-chloro-5-isoquinolinesulfonyl)pyrrolidine]	–	10 to 20
O=S(=O)(c1cccc2cncc(F)c12)N1CC[C@H](NCc2ccc3c(c2)OCO3)C1 [Example 18-8]	< 1000	–
N#CCC(=O)N[C@H]1CCN(S(=O)(=O)c2cccc3cncc(Cl)c23)C1 [Example 90, (S)-3-(2-Cyanoacetyl)amino-1-(4-chloro-5-isoquinolinesulfonyl)pyrrolidine]	–	10 to 20
Cc1cncc2cccc(S(=O)(=O)N3CC[C@H](NC(=O)CN(C)C)C3)c12 [Example 72, (S)-3-[2-(Dimethylamino)acetyl]amino-1-(4-methyl-5-isoquinolinesulfonyl)pyrrolidine]	–	10 to 20
N[C@H]1CCN(S(=O)(=O)c2cccc3cncc(C(F)(F)F)c23)C1 [Example 47-1, (S)-3-Amino-1-(4-trifluoromethyl-5-isoquinolinesulfonyl)pyrrolidine]	1000 to 3000	–
COCC(=O)N[C@H]1CCN(S(=O)(=O)c2cccc3c(O)ncc(Cl)c23)C1 [Example 68-1, (S)-3-(2-Methoxyacetyl)amino-1-(1-hydroxy-4-chloro-5-isoquinolinesulfonyl)pyrrolidine]	–	5 to 10
CS(=O)(=O)N[C@H]1CCN(S(=O)(=O)c2cccc3cncc(Cl)c23)C1 [Example 50-1, (S)-3-(Methanesulfonylamino)-1-(4-chloro-5-isoquinolinesulfonyl)pyrrolidine]	1000 to 3000	–
